Tests used:
HCT-116 cells [1] = test: Inhibition assay of cancer cell sphere-forming ability; assay type: cell-based; conditions: Homo sapiens, 96 h, ultra-low attachment plate, serum-free DMEM/F12 with B27, EGF, bFGF, insulin, cultured for 4 days, Cell Titer-Glo
Protocol: HCT-116 cells were obtained from American Type Culture Collection (ATCC). HCT-116 cells were cultured at 37° C. in the presence of 5% CO2 using McCoy's 5a medium containing 10% fetal bovine serum (FBS) and 1% penicillin/streptomycin. The HCT-116 cells were seeded onto 384 Well Black Clear Bottom Ultra-Low Attachment Microplate (Corning Cat. No. 3827) using DMEM/F12 medium containing 2% B27 supplement (GIBCO), 20 ng/mL epidermal growth factor (EGF) (peprotech), 10 ng/mL basic fibroblast growth factor (bFGF) (peprotech), 5 μg/mL insulin (Sigma), and 1% penicillin/streptomycin to be 350-800 cells/well. A test substance was added so that the final concentration of DMSO is 0.1%, and then cultured for 4 days. The number of living cells was then counted using Cell Titer-Glo (registered trademark) Luminescent Cell Viability Assay (Promega) to calculate the concentration for 50% inhibition of cell proliferation of respective test substances (Sphere IC50 value; μM) (this test is a method which evaluates the functions of cancer stem cells (see Non Patent Literature 4)).

HCT-116 cells [2] = test: Proliferation inhibition assay of cancer cells; assay type: cell-based; conditions: Homo sapiens, 96 h, adherent culture with 10% FBS, cultured for 4 days, Cell Titer-Glo, read-out: IC50 (μM) HCT (Bulk IC50 value)
Protocol: HCT-116 cells were obtained from American Type Culture Collection (ATCC). HCT-116 cells were cultured at 37° C. in the presence of 5% CO2 using McCoy's 5a medium containing 10% fetal bovine serum (FBS) and 1% penicillin/streptomycin. After cells were seeded at 300-600 cells/well onto μClear-plate black 384 well (Greiner bio-one Cat. No. 781091), a test substance was added such that the final concentration of DMSO is 0.1%, and cultured for 4 days. The number of living cells was then counted using Cell Titer-Glo (registered trademark) Luminescent Cell Viability Assay (Promega) to calculate a concentration for 50% inhibition of cell proliferation of respective test substances (Bulk IC50 value; μM).

Row | IC50 (HCT-116 cells [1]) [µM] | IC50 (HCT-116 cells [2]) [µM] | Structure (SMILES)
1 | 6.39 | 4.93 | CC(=O)c1cc2c(o1)C(=O)c1c(ccc(Br)c1O)C2=O [Example 3, 2-Acetyl-7-bromo-8-hydroxynaphtho[2,3-b]furan-4,9-dione]
2 | 5.12 | 0.63 | CC(=O)c1cc2c(o1)C(=O)c1ccc(Br)c(O)c1C2=O [Example 2, 2-Acetyl-6-bromo-5-hydroxynaphtho[2,3-b]furan-4,9-dione]
3 | 0.24 | 0.63 | CC(=O)c1cc2c(o1)C(=O)c1c(Cl)ccc(O)c1C2=O [Example 1, 2-Acetyl-8-chloro-5-hydroxynaphtho[2,3-b]furan-4,9-dione]
